Assay results: patent publication US8222295B2, “Compositions comprising polyunsaturated fatty acid monoglycerides or derivatives thereof and uses thereof” (Centre de Recherche sur les Biotechnologies Marines, priority 2007, dated 2012)
Converted amounts (≈) assume the structure as drawn.

How the values were obtained:
[1] = human, in vivo
Procedure: The volunteer fasted for 12 hours prior to the study. […] Controlled amount of boiled pasta was eaten after the 4 h time point. An initial blood sample (400 μl) was collected using a lancet at a fingertip into heparin tubes followed by samples at 1, 2, 3, 4, 5, 6, 7 and 8 hour after ingestion. Plasma was separated and immediately analysed for fatty acid composition.
The AUC (calculates area under the curve for concentration vs. time data) is calculated using linear trapezoidal rule. […] In this experiment, the doses are the same. […] The relative bioavailability of compound 1 and compound 5 is calculated with the same formula:

[2] = tested on: human monocyte THP-1 cells; assay: LPS-induced TNF-α release by monocyte cells (ELISA); assay type: cell-based; details: 100 ng/ml of LPS, 4 hours, composition 3 10 μg/ml, curcumin 5 μg/ml
Procedure: Composition 3 (comprising compounds 1 and 5) at final concentration of 10 μg/ml, curcumin (5 μg/ml) and a 1:1 mixture of composition 3 ([…]) and curcumin (5 μg/ml) in DMSO (1%) was used for the in vitro assay. Composition 3 prepared according to the same procedure as previously described in Example 2)
The in vitro assay allows evaluation of the potential anti-inflammatory effects of compounds on the induced-release of pro-inflammatory mediator by monocyte cells. Typical human monocyte THP-1 cells, involved in inflammatory processes, are used in this assay. Measurement of pro-inflammatory mediator TNF-α is performed by ELISA (manufactured by R&D Systems) with artificial induction of pro-inflammatory agents by LPS (E. Coli 055:B5) during 4 hours. Known anti-inflammatory agent dexametazone was used as positive control.

[3] = tested on: HCT-15 human colon cancer cell line; assay: in vitro cell viability assay (SRB) on HCT-15; assay type: cell-based
Procedure: (§1) Five consecutive dilutions with a equal volume of DMSO was performed. […] Precipitation occur at high concentration of curcumin. […] Five consecutive dilutions with a equal volume of DMSO was performed. […] The cell viability assay is performed to measure the relative cell viability status of cancer cells upon exposure to test compounds in comparison to a positive control (etoposide) and a negative control (vehicule). Adherent cells growing in 96-well plates are exposed to test compounds for 3 days (72 hours). […] All conditions are tested in triplicate. […] After the incubation time, total protein content is quantified following staining with the anionic dye sulforhodamine B (SRB). The detection of luminescence, emitted by SRB, is completed by a microplate reader. This method of detection is based upon works published by Monks et al., in Journal of the National Cancer Institute vol. 82 no. […] The amount of luminescence is directly proportional to the number of living cells in culture. […] Cells were trypsinized using 0.25% trypsine (w/v)/0.53 mM EDTA solution (Hyclone), counted and plated at densities between 1000 and 3000 cells per well in flat bottom 96-well clear plates (Becton Dickinson) in 100 μl of appropriate culture medium supplemented with fetal bovine serum (Hyclone). […] Absorbance was read at 515 nm using a 96-well plate Multiskan Spectrum luminescence reader (Thermo Electron Corporation). […]

[4] = tested on: PC-3 human prostate cancer cell line; assay: in vitro cell viability assay (SRB) on PC-3; assay type: cell-based
Procedure: as §1

[5] = tested on: A-549 human lung cancer cell line; assay: in vitro cell viability assay (SRB) on A-549; assay type: cell-based
Procedure: as §1

## CC/C=C\C/C=C\C/C=C\C/C=C\C/C=C\CCCCCC(=O)OCC(O)CO (stereo not drawn) [compound 1]
[1]
  relative bioavailability of compound 1 compared to compound 5: 2.20

## COc1cc(/C=C/C(=O)CC(=O)/C=C/c2ccc(O)c(OC)c2)ccc1O [curcumin]
[2]
  TNF-α measured: 100 µg/mL
[3]; HCT-15, 72 hours, SRB, concentration of the tested substance or composition, read-out: 50% growth inhibition concentration
  IC50: ~100 µg/mL (≈ 271 µM)
[4]; PC-3, 72 hours, SRB, concentration of the tested substance or composition, read-out: 50% growth inhibition concentration
  IC50: ~75 µg/mL (≈ 204 µM)
[5]; A549, A-549, 72 hours, SRB, concentration of the tested substance or composition, read-out: 50% growth inhibition concentration
  IC50: ~100 µg/mL (≈ 271 µM)

## C[C@@H]1C[C@H]2[C@@H]3CCC4=CC(=O)C=C[C@]4(C)[C@@]3(F)[C@@H](O)C[C@]2(C)[C@@]1(O)C(=O)CO [dexametazone]
[2]
  TNF-α measured: 125 µg/mL

## COc1cc([C@@H]2c3cc4c(cc3[C@@H](O[C@@H]3O[C@@H]5CO[C@@H](C)O[C@H]5[C@H](O)[C@H]3O)[C@H]3COC(=O)[C@H]23)OCO4)cc(OC)c1O [etoposide]
[3]; HCT-15, positive control at 294 μg/ml, read-out: growth inhibition
  inhibition at 294 µg/mL: 100%
[4]; PC-3, positive control at 294 μg/ml, read-out: growth inhibition
  inhibition at 294 µg/mL: 100%
[5]; A549, A-549, positive control at 294 μg/ml, read-out: growth inhibition
  inhibition at 294 µg/mL: 100%
